# Results taken from patent US10736873B2, “Medical uses of N-(2-aminoethyl)-N-(4-benzyloxy)-3-methoxybenzyl)thiophene-2-formamide hydrochloride” (The Second Xiangya Hospital, Central South University, priority 2017, dated 2020).
# Assays:
# [1] = test system: Scid-HepG2-subcutaneous tumor; assay: Scid-HepG2 subcutaneous tumor model in NOD/SCID nude mice; assay type: in vivo; settings: for Relative volume of Scid-HepG2-subcutaneous tumor: 2 mg/kg i.p. 1 time/day
# Method: (§1) Using the hepatoma cell line HepG2, 5×10^6 cells were injected into the right flank of each NOD/SCID nude mouse (10 in total) respectively. When the tumor grows to a volume of about 80 mm^3, the mice were randomly divided into control group and therapeutic intervention group, with 5 mice in each group. Therapeutic Intervention Group: M8-B hydrochloride was dissolved in DMSO to form an injectable medication, intraperitoneally injected, at a dose of 2 mg/kg (wherein 2 mg was the mass of M8-B hydrochloride), 1 time/day. Control Group: The blank solvent DMSO was intraperitoneally injected, at a dose of 2 mg/kg, 1 time/day. Tumor size was measured by volume=½×length×width^2, and the mice were sacrificed at week 10 to compare survival rate and tumor volume. The experimental results of this example are as follows: Tumor size was measured by volume=½×length×width^2, and mice were sacrificed at week 10 to compare survival rate and tumor volume. The experimental results of this example are as follows: In Table 1, DMSO represents the relative volume of Scid-HepG2-subcutaneous tumor in the control group of blank solvent, M8-B represents the relative volume of Scid-HepG2-subcutaneous tumor in the therapeutic intervention group, and P value represents the difference between the relative volumes of Scid-HepG2-subcutaneous tumors in the control group and therapeutic intervention group. The tumor size on the first day of administration is 100%.
# [2] = test system: Scid-Huh7-subcutaneous tumor; assay: Scid-Huh7 subcutaneous tumor model in NOD/SCID nude mice; assay type: in vivo; settings: for Relative volume of Scid-Huh7-subcutaneous tumor: 2 mg/kg i.p. 1 time/day
# Method: as §1, with “Huh7,” for “HepG2,”, “6” for “10 to compare survival rate and tumor volume. The experimental results of this example are as follows: Tumor size was measured by volume=½×length×width^2, and mice were sacrificed at week 10”, “2,” for “1,”, “Scid-Huh7-subcutaneous” for “Scid-HepG2-subcutaneous”
# [3] = week 0, tumor size on first day of administration = 100%
# [4] = week 1, first day of administration = 100%
# [5] = week 2, first day of administration = 100%
# [6] = week 3, first day of administration = 100%
# [7] = week 4, first day of administration = 100%
# [8] = week 5, first day of administration = 100%
# [9] = week 6, first day of administration = 100%
smiles,measurement,setting,value
COc1cc(CN(CCN)C(=O)c2cccs2)ccc1OCc1ccccc1.Cl [M8B],changes of tumor volume in mice (HepG2 tumors),"[1]; versus DMSO control, results of table 1",significantly slower
same,Relative volume of Scid-HepG2-subcutaneous tumor,[1]; [3],100.00%
same,Relative volume of Scid-HepG2-subcutaneous tumor,[1]; [4],151.94%
same,Relative volume of Scid-HepG2-subcutaneous tumor,[1]; [5],212.44%
same,Relative volume of Scid-HepG2-subcutaneous tumor,[1]; [6],273.9%
same,Relative volume of Scid-HepG2-subcutaneous tumor,[1]; [7],349.0%
same,Relative volume of Scid-HepG2-subcutaneous tumor,[1]; [8],416.66%
same,Relative volume of Scid-HepG2-subcutaneous tumor,[1]; [9],479.2%
same,Relative volume of Scid-HepG2-subcutaneous tumor,"[1]; week 7, first day of administration = 100%",590.68%
same,Relative volume of Scid-HepG2-subcutaneous tumor,"[1]; week 8, first day of administration = 100%",1108.50%
same,Relative volume of Scid-HepG2-subcutaneous tumor,"[1]; week 9, first day of administration = 100%",700.92%
same,Relative volume of Scid-HepG2-subcutaneous tumor,"[1]; week 10, first day of administration = 100%",734.87%
same,changes of tumor volume in mice (HuH7 tumors),"[2]; versus DMSO control, results of table 2",significantly slower
same,Relative volume of Scid-Huh7-subcutaneous tumor,[2]; [3],100.00%
same,Relative volume of Scid-Huh7-subcutaneous tumor,[2]; [4],143.85%
same,Relative volume of Scid-Huh7-subcutaneous tumor,[2]; [5],205.0%
same,Relative volume of Scid-Huh7-subcutaneous tumor,[2]; [6],381.41%
same,Relative volume of Scid-Huh7-subcutaneous tumor,[2]; [7],484.0%
same,Relative volume of Scid-Huh7-subcutaneous tumor,[2]; [8],789.89%
same,Relative volume of Scid-Huh7-subcutaneous tumor,[2]; [9],928.01%
